Measurements as given in patent US20170037028A1 (BAYER PHARMA AKTIENGESELLSCHAFT, priority 2013, published 2017).

Target: T1, GLUT1 (Homo sapiens, UniProt P11166)
T1 sequence (P11166 1-492): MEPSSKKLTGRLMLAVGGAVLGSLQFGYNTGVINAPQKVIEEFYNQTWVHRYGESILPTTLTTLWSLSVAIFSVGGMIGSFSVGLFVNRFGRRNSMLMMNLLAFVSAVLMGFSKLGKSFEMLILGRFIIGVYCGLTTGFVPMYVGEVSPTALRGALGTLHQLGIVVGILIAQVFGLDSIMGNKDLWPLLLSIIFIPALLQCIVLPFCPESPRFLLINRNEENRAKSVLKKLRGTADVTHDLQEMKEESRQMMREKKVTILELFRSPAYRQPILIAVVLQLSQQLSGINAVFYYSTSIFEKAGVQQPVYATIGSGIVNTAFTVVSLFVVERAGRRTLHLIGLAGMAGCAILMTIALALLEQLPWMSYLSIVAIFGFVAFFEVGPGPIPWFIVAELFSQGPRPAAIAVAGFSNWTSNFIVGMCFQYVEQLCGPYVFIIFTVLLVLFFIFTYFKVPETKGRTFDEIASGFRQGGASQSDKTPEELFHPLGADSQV
Assay: Indirect measurement of GLUT1 activity by quantification of intracellular ATP levels (glucose induced ATP increase)
Format: cell-based
Set-up: endogenous in cells; host or cells: DLD1 or CHO-K1
Conditions: read-out: IC50 regarding glucose induced ATP increase (GLUT1 inhibition)
Summary of the method: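 Intracellular ATP was measured by CellTiter-Glo luminescence as an indirect readout of transport: glucose-driven for GLUT1, fructose-driven for GLUT2. DLD1 or CHO-K1 cells were used alongside an oxidative phosphorylation inhibitor. Beforehand, cells were held overnight in glucose-free 1% FCS medium to deplete ATP.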

Row | Compound | IC50 [nM]
1 | Cc1c(NC(=O)c2cc(C(N)=O)nc3cccc(F)c23)c(C(F)(F)F)nn1Cc1c(F)cc(C#N)cc1F [Example 397, N^4-[1-(4-cyano-2,6-difluorobenzyl)-5-methyl-3-(trifluoromethyl)-1H-pyrazol-4-yl]-5-fluoroquinoline-2,4-dicarboxamide] | 7.5
2 | Cc1c(NC(=O)c2cc(C(N)=O)nc3cc(F)c(Cl)cc23)c(C(F)(F)F)nn1Cc1c(F)cc(C#N)cc1F [Example 398, 6-chloro-N^4-[1-(4-cyano-2,6-difluorobenzyl)-5-methyl-3-(trifluoromethyl)-1H-pyrazol-4-yl]-7-fluoroquinoline-2,4-dicarboxamide] | 5.5
3 | Cc1c(NC(=O)c2cc(C(N)=O)nc3ccc(Br)cc23)c(C(F)(F)F)nn1Cc1c(F)cc(C#N)cc1F [Example 399, 6-bromo-N^4-[1-(4-cyano-2,6-difluorobenzyl)-5-methyl-3-(trifluoromethyl)-1H-pyrazol-4-yl]quinoline-2,4-dicarboxamide] | 4.5
4 | Cc1c(NC(=O)c2cc(C(N)=O)nc3cc(F)ccc23)c(C(F)(F)F)nn1Cc1ccc(-c2nnn[nH]2)cc1 [Example 400, 7-fluoro-N^4-{5-methyl-1-[4-(1H-tetrazol-5-yl)benzyl]-3-(trifluoromethyl)-1H-pyrazol-4-yl}quinoline-2,4-dicarboxamide] | 1260
5 | COCc1ccc(Cn2nc(C(F)(F)F)c(NC(=O)c3cc(C(N)=O)nc4cc(F)ccc34)c2C)cc1 [Example 401, 7-fluoro-N^4-{1-[4-(methoxymethyl)benzyl]-5-methyl-3-(trifluoromethyl)-1H-pyrazol-4-yl}quinoline-2,4-dicarboxamide] | 10
6 | COCc1ccc(Cn2nc(C(F)(F)F)c(NC(=O)c3cc(C(N)=O)nc4cccc(F)c34)c2C)cc1 [Example 402, 5-fluoro-N^4-{1-[4-(methoxymethyl)benzyl]-5-methyl-3-(trifluoromethyl)-1H-pyrazol-4-yl}quinoline-2,4-dicarboxamide] | 6.7
7 | Cc1c(NC(=O)c2cc(C(N)=O)nc3cc(F)ccc23)c(C(F)(F)F)nn1Cc1ccc(CC#N)cc1 [Example 403, N^4-{1-[4-(cyanomethyl)benzyl]-5-methyl-3-(trifluoromethyl)-1H-pyrazol-4-yl}-7-fluoroquinoline-2,4-dicarboxamide] | 1
8 | CNC(=O)c1nc(Cn2nc(C)c(NC(=O)c3cc(C(F)(F)F)nc4ccc(Br)cc34)c2C)no1 [Example 404, 6-bromo-N-(3,5-dimethyl-1-{[5-(methylcarbamoyl)-1,2,4-oxadiazol-3-yl]methyl}-1H-pyrazol-4-yl)-2-(trifluoromethyl)quinoline-4-carboxamide] | 1.4
9 | Cc1nn(CC2CCN(C(=O)OC(C)(C)C)CC2)c(C)c1NC(=O)c1cc(C(N)=O)nc2ccccc12 [Example 405, tert-butyl 4-[(4-{[(2-carbamoylquinolin-4-yl)carbonyl]amino}-3,5-dimethyl-1H-pyrazol-1-yl)methyl]piperidine-1-carboxylate] | 242
10 | Cc1nn(CC2CCNCC2)c(C)c1NC(=O)c1cc(C(N)=O)nc2ccccc12 [Example 406, N^4-[3,5-dimethyl-1-(piperidin-4-ylmethyl)-1H-pyrazol-4-yl]quinoline-2,4-dicarboxamide] | 1530
11 | CCS(=O)(=O)N1CCC(Cn2nc(C)c(NC(=O)c3cc(C(N)=O)nc4ccccc34)c2C)CC1 [Example 407, N^4-(1-{[1-(ethylsulfonyl)piperidin-4-yl]methyl}-3,5-dimethyl-1H-pyrazol-4-yl)quinoline-2,4-dicarboxamide] | 2.1
12 | Cc1cc(Cn2nc(C(F)(F)F)c(NC(=O)c3cc(C(N)=O)nc4cc(F)c(Cl)cc34)c2C)no1 [Example 408, 6-chloro-7-fluoro-N^4-{5-methyl-1-[(5-methyl-1,2-oxazol-3-yl)methyl]-3-(trifluoromethyl)-1H-pyrazol-4-yl}quinoline-2,4-dicarboxamide] | 7.8
13 | CCc1nc(Cn2nc(C(F)(F)F)c(NC(=O)c3cc(C(N)=O)nc4cc(F)c(Cl)cc34)c2C)no1 [Example 409, 6-chloro-N^4-{1-[(5-ethyl-1,2,4-oxadiazol-3-yl)methyl]-5-methyl-3-(trifluoromethyl)-1H-pyrazol-4-yl}-7-fluoroquinoline-2,4-dicarboxamide] | 5.5
14 | CCc1cc(Cn2nc(C(F)(F)F)c(NC(=O)c3cc(C(N)=O)nc4cc(F)c(Cl)cc34)c2C)on1 [Example 410, 6-chloro-N^4-{1-[(3-ethyl-1,2-oxazol-5-yl)methyl]-5-methyl-3-(trifluoromethyl)-1H-pyrazol-4-yl}-7-fluoroquinoline-2,4-dicarboxamide] | 8.9
15 | Cc1cc(Cn2nc(C)c(NC(=O)c3cc(C(N)=O)nc4cc(F)c(Cl)cc34)c2C)on1 [Example 411, 6-chloro-N^4-{3,5-dimethyl-1-[(3-methyl-1,2-oxazol-5-yl)methyl]-1H-pyrazol-4-yl}-7-fluoroquinoline-2,4-dicarboxamide] | 1.1
16 | Cc1cc(Cn2nc(C)c(NC(=O)c3cc(C(N)=O)nc4cc(F)c(Cl)cc34)c2C)no1 [Example 412, 6-chloro-N^4-{3,5-dimethyl-1-[(5-methyl-1,2-oxazol-3-yl)methyl]-1H-pyrazol-4-yl}-7-fluoroquinoline-2,4-dicarboxamide] | 2.1
17 | CCS(=O)(=O)N1CCC(Cn2nc(C(F)(F)F)c(NC(=O)c3cc(C(N)=O)nc4cc(F)c(Cl)cc34)c2C)CC1 [Example 413, 6-chloro-N^4-[1-{[1-(ethylsulfonyl)piperidin-4-yl]methyl}-5-methyl-3-(trifluoromethyl)-1H-pyrazol-4-yl]-7-fluoroquinoline-2,4-dicarboxamide] | 5.6
18 | CCc1cc(Cn2nc(C)c(NC(=O)c3cc(C(N)=O)nc4cc(F)c(Cl)cc34)c2C)on1 [Example 414, 6-chloro-N^4-{1-[(3-ethyl-1,2-oxazol-5-yl)methyl]-3,5-dimethyl-1H-pyrazol-4-yl}-7-fluoroquinoline-2,4-dicarboxamide] | 1.3
19 | Cc1nn(Cc2cc(C(C)C)no2)c(C)c1NC(=O)c1cc(C(N)=O)nc2cc(F)c(Cl)cc12 [Example 416, 6-chloro-N^4-(3,5-dimethyl-1-{[3-(propan-2-yl)-1,2-oxazol-5-yl]methyl}-1H-pyrazol-4-yl)-7-fluoroquinoline-2,4-dicarboxamide] | 2.7
20 | Cc1nn(Cc2cc(C3CC3)on2)c(C)c1NC(=O)c1cc(C(N)=O)nc2cc(F)c(Cl)cc12 [Example 417, 6-chloro-N^4-{1-[(5-cyclopropyl-1,2-oxazol-3-yl)methyl]-3,5-dimethyl-1H-pyrazol-4-yl}-7-fluoroquinoline-2,4-dicarboxamide] | 0.7
21 | Cc1nn(Cc2cc(C3CC3)on2)c(C)c1NC(=O)c1cc(C(N)=O)nc2cc(F)ccc12 [Example 418, N^4-{1-[(5-cyclopropyl-1,2-oxazol-3-yl)methyl]-3,5-dimethyl-1H-pyrazol-4-yl}-7-fluoroquinoline-2,4-dicarboxamide] | 4.1
22 | Cc1nn(Cc2cc(C3CC3)on2)c(C)c1NC(=O)c1cc(C(N)=O)nc2ccccc12 [Example 419, N^4-{1-[(5-cyclopropyl-1,2-oxazol-3-yl)methyl]-3,5-dimethyl-1H-pyrazol-4-yl}quinoline-2,4-dicarboxamide] | 4.2
